Measurements taken from PMC3626541, “A first in human, safety, pharmacokinetics, and clinical activity phase I study of once weekly administration of the Hsp90 inhibitor ganetespib (STA-9090) in patients with solid malignancies” (BMC Cancer, 2013).

System: patients with advanced solid tumors
Assay: Safety: adverse events (NCI CTCAE v3.0), ECG
Assay type: in vivo, human
Experimental: Patients’ demographics and medical history were recorded at baseline. Physical examination and PS were assessed at baseline and on Day 1 of each cycle. Adverse events (AEs), vital signs, hematology and chemistry values, and creatinine clearance were assessed at baseline and weekly during treatment. Toxicity was graded using National Cancer Institute Common Terminology Criteria for Adverse Events (NCI CTCAE), version 3.0. An electrocardiogram (ECG) was performed at baseline, before and after treatment on Days 1 and 15 of Cycles 1 and 2, and on Day 15 of even-numbered cycles thereafter. CT scans were done at baseline and every 8 weeks thereafter. Tumor response was assessed using Response Evaluation Criteria in Solid Tumors (RECIST, v1.0), with confirmation of responses performed at least 4 weeks later.

CC(C)c1cc(-c2n[nH]c(=O)n2-c2ccc3c(ccn3C)c2)c(O)cc1O [Ganetespib, 5-[2,4-dihydroxy-5-(1 methyl-ethyl)phenyl]-2,4 dihydro-4-(1-methyl-1H indol-5 yl)-3H-1,2,4 triazole-3-one]
2 (33.3) n (%): Asthenia, AE of any grade, Number (%) of patients (259 mg/m^2, n = 6) | Asthenia, CTCAE Grade 3 and 4 AE, Number (%) of patients (259 mg/m^2, n = 6) | Back pain, AE of any grade, Number (%) of patients (259 mg/m^2, n = 6) | Dizziness, AE of any grade, Number (%) of patients (259 mg/m^2, n = 6) | Insomnia, AE of any grade, Number (%) of patients (259 mg/m^2, n = 6)
5 (20) n (%): AST elevated, AE of any grade, Number (%) of patients (7-114 mg/m^2, n = 25)
9 (36) n (%): Abdominal pain, AE of any grade, Number (%) of patients (7-114 mg/m^2, n = 25)
One patient: Patients with Grade 1 atrio-ventricular block (259 mg/m^2, history of coronary artery disease, possibly related to study drug)
3 (50) n (%): Any event, serious adverse events, Number (%) of patients (259 mg/m^2, n = 6) | Dehydration, AE of any grade, Number (%) of patients (259 mg/m^2, n = 6) | Urinary tract infection, AE of any grade, Number (%) of patients (259 mg/m^2, n = 6) | Vomiting, AE of any grade, Number (%) of patients (259 mg/m^2, n = 6)
1 (16.7) n (%): Abdominal pain, AE of any grade, Number (%) of patients (259 mg/m^2, n = 6) | Abdominal pain, serious adverse events, Number (%) of patients (259 mg/m^2, n = 6) | Arthralgia, CTCAE Grade 3 and 4 AE, Number (%) of patients (259 mg/m^2, n = 6) | Asthenia, serious adverse events, Number (%) of patients (259 mg/m^2, n = 6) | Constipation, AE of any grade, Number (%) of patients (259 mg/m^2, n = 6) | Decreased appetite, AE of any grade, Number (%) of patients (259 mg/m^2, n = 6) | Dehydration, CTCAE Grade 3 and 4 AE, Number (%) of patients (259 mg/m^2, n = 6) | Dehydration, serious adverse events, Number (%) of patients (259 mg/m^2, n = 6) | Diarrhea, CTCAE Grade 3 and 4 AE, Number (%) of patients (259 mg/m^2, n = 6) | Dry mouth, AE of any grade, Number (%) of patients (259 mg/m^2, n = 6) | Dyspnea, AE of any grade, Number (%) of patients (259 mg/m^2, n = 6) | Extremity pain, AE of any grade, Number (%) of patients (259 mg/m^2, n = 6) | Fatigue, CTCAE Grade 3 and 4 AE, Number (%) of patients (259 mg/m^2, n = 6) | Headache, AE of any grade, Number (%) of patients (259 mg/m^2, n = 6) | Hypokalemia, AE of any grade, Number (%) of patients (259 mg/m^2, n = 6) | Peripheral edema, AE of any grade, Number (%) of patients (259 mg/m^2, n = 6) | Pneumonia, serious adverse events, Number (%) of patients (259 mg/m^2, n = 6) | Rash, AE of any grade, Number (%) of patients (259 mg/m^2, n = 6) | Weight decreased, AE of any grade, Number (%) of patients (259 mg/m^2, n = 6)
5 (83.3) n (%): Any event, CTCAE Grade 3 and 4 AE, Number (%) of patients (259 mg/m^2, n = 6) | Fatigue, AE of any grade, Number (%) of patients (259 mg/m^2, n = 6)
4 (66.7) n (%): Nausea, AE of any grade, Number (%) of patients (259 mg/m^2, n = 6)
83.3%: Incidence of fatigue (259 mg/m^2 dose level)
11 (44) n (%): Anemia, AE of any grade, Number (%) of patients (7-114 mg/m^2, n = 25)
3 (12) n (%): Abdominal distension, AE of any grade, Number (%) of patients (7-114 mg/m^2, n = 25)
100%: Incidence of diarrhea (259 mg/m^2 dose level)
6 (100) n (%): Any event, AE of any grade, Number (%) of patients (259 mg/m^2, n = 6) | Diarrhea, AE of any grade, Number (%) of patients (259 mg/m^2, n = 6)
0 n (%): ALT elevation, CTCAE Grade 3 and 4 AE, Number (%) of patients (259 mg/m^2, n = 6) | AST elevated, AE of any grade, Number (%) of patients (259 mg/m^2, n = 6) | Abdominal distension, AE of any grade, Number (%) of patients (259 mg/m^2, n = 6) | Anemia, AE of any grade, Number (%) of patients (259 mg/m^2, n = 6) | Hyperbilirubinemia, CTCAE Grade 3 and 4 AE, Number (%) of patients (259 mg/m^2, n = 6) | Hypokalemia, CTCAE Grade 3 and 4 AE, Number (%) of patients (259 mg/m^2, n = 6) | Hyponatremia, CTCAE Grade 3 and 4 AE, Number (%) of patients (259 mg/m^2, n = 6) | Hypophosphatemia, AE of any grade, Number (%) of patients (259 mg/m^2, n = 6) | Hypophosphatemia, CTCAE Grade 3 and 4 AE, Number (%) of patients (259 mg/m^2, n = 6) | Musculoskeletal chest pain, AE of any grade, Number (%) of patients (259 mg/m^2, n = 6) | Serum amylase elevated, CTCAE Grade 3 and 4 AE, Number (%) of patients (259 mg/m^2, n = 6) | Spinal cord compression, CTCAE Grade 3 and 4 AE, Number (%) of patients (259 mg/m^2, n = 6) | ALT elevated, AE of any grade, Number (%) of patients (259 mg/m^2, n = 6, first of two ALT elevated lines) | ALT elevated, AE of any grade, Number (%) of patients (259 mg/m^2, n = 6, second of two ALT elevated lines) | Abdominal pain, serious adverse events, Number (%) of patients (7-114 mg/m^2, n = 25)
2 (8) n (%): ALT elevation, CTCAE Grade 3 and 4 AE, Number (%) of patients (7-114 mg/m^2, n = 25)
